Results reported in patent US9758485B2, “Compounds for controlling arthropods” (priority 2013, dated 2017).

Tests used:
Ctenocephalides felis = Ctenocephalides felis - oral test; format: in vivo; settings: application rate 100 ppm in citrated cattle blood; adult fleas; kill after 2 days
Protocol: Ctenocephalides felis—Oral Test
(§1) Solvent: dimethyl sulphoxide
For the purpose of producing an appropriate active ingredient formulation, 10 mg of active ingredient are mixed with 0.5 ml of dimethyl sulphoxide. Dilution with citrated cattle blood gives the desired concentration.
About 20 unfed adult cat fleas (Ctenocephalides felis) are placed into a chamber which is closed at the top and bottom with gauze. A metal cylinder whose bottom end is closed with parafilm is placed onto the chamber. The cylinder contains the blood/active ingredient preparation, which can be imbibed by the fleas through the parafilm membrane.
After 2 days, the kill in % is determined. 100% means that all of the fleas have been killed; 0% means that none of the fleas have been killed.

Musca domestica = Musca domestica test; format: in vivo; settings: adult houseflies, kill after 2 days
Protocol: as §1
(§2) To produce an appropriate active ingredient formulation, 10 mg of active ingredient are mixed with 0.5 ml of dimethyl sulphoxide, and the concentrate is diluted with water to the desired concentration.
Vessels containing a sponge treated with sugar solution and the active ingredient formulation of the desired concentration are populated with 10 adult houseflies (Musca domestica).
After 2 days, the kill in % is determined. 100% means that all of the flies have been killed; 0% means that none of the flies have been killed.

Lucilia cuprina = Lucilia cuprina test; format: in vivo; settings: application rate 100 ppm; L1 larvae in minced horsemeat; kill after 2 days
Protocol: as §1, §2
About 20 L1 larvae of the Australian sheep blowfly (Lucilia cuprina) are transferred into a test vessel containing minced horsemeat and the active ingredient preparation of the desired concentration.
After 2 days, the kill in % is determined. 100% means that all the larvae have been killed; 0% means that none of the larvae have been killed.

[1] = logP determination by HPLC on a reversed-phase column (C18), EEC Directive 79/831 Annex V.A8; format: physicochemical; settings: HPLC-MS method a), Table I-T3
Boophilus microplus = Boophilus microplus - injection test; format: in vivo; settings: application rate 20 μg/animal; injected into engorged adult female ticks; laying of fertile eggs, after 7 days
Protocol: Boophilus microplus—Injection Test
as §1
To produce an appropriate active ingredient formulation, 10 mg of active ingredient are mixed with 0.5 ml of solvent and the concentrate is diluted with solvent to the desired concentration.
1 μl of the active ingredient solution is injected into the abdomen of 5 engorged adult female cattle ticks (Boophilus microplus). The animals are transferred into dishes and kept in a climate-controlled room.
Efficacy is assessed after 7 days by laying of fertile eggs. Eggs which are not visibly fertile are stored in a climate-controlled cabinet until the larvae hatch after about 42 days. An efficacy of 100% means that none of the ticks has laid any fertile eggs; 0% means that all the eggs are fertile.

Compound | efficacy (Ctenocephalides felis) [%] | efficacy (Musca domestica; application rate 100 ppm) [%] | efficacy (Lucilia cuprina) [%] | logP^a) [1] | efficacy (Boophilus microplus) [%] | efficacy (Musca domestica; application rate 4 ppm) [%]
Cc1cc(C(F)(C(F)(F)F)C(F)(F)F)cc(C)c1-n1cc(-c2ccc(Cl)c(C(=O)NCC(F)(F)F)c2)cn1 [I-T3-2] | 100 | 100 | 100 | 4.7 | 100 | –
Cc1cc(C(F)(C(F)(F)F)C(F)(F)F)cc(C)c1-n1cc(-c2ccc(Cl)c(C(=O)NC3CSC3)c2)cn1 [I-T3-4] | 100 | 100 | 100 | 4.7 | 100 | –
Cc1cc(C(F)(C(F)(F)F)C(F)(F)F)cc(C)c1-n1cc(-c2ccc(Cl)c(C(=O)NC3(C(F)(F)F)CC3)c2)cn1 [I-T3-5] | 100 | 100 | 100 | 4.6 | 100 | –
Cc1cc(C(F)(C(F)(F)F)C(F)(F)F)cc(C)c1-n1cc(-c2cncc(C(=O)NC3(C#N)CC3)c2)cn1 [I-T3-8] | 100 | 100 | 100 | 3.4 | 100 | –
N#CC1(NC(=O)c2cc(-c3cnn(-c4ccc(C(F)(C(F)(F)F)C(F)(F)F)cc4OC(F)(F)F)c3)ccc2Cl)CC1 [I-T3-34] | 100 | 100 | 100 | 4.6 | 100 | –
O=C(NC1CC1)c1cc(-c2cnn(-c3ccc(C(F)(C(F)(F)F)C(F)(F)F)cc3OC(F)(F)F)c2)ccc1Cl [I-T3-35] | 100 | – | 100 | 4.7 | 100 | 80
O=C(NCC(F)(F)F)c1cc(-c2cnn(-c3c(Cl)cc(C(F)(C(F)(F)F)C(F)(F)F)cc3C(F)(F)F)c2)ccc1Cl [I-T3-58] | 100 | 100 | 100 | 4.7 | 100 | –
N#CC1(NC(=O)c2cc(-c3cnn(-c4c(F)cc(C(F)(C(F)(F)F)C(F)(F)F)cc4F)c3)ccc2Cl)CC1 [I-T3-62] | 100 | 100 | 100 | 3.9 | 100 | –
Cc1cc(C(F)(C(F)(F)F)C(F)(F)F)cc(C)c1-n1cc(-c2ccc(Cl)c(C(=O)NC3(C#N)CC3)c2F)cn1 [I-T3-65] | 100 | 100 | 100 | 4.3 | 100 | –
CCc1cc(C(F)(C(F)(F)F)C(F)(F)F)cc(C)c1-n1cc(-c2ccc(Cl)c(C(=O)NC3(C#N)CC3)c2F)cn1 [I-T3-66] | 100 | 80 | 100 | 4.6 | 100 | –
CCc1cc(C(F)(C(F)(F)F)C(F)(F)F)cc(C)c1-n1cc(-c2ccc(Cl)c(C(=O)NC3CC3)c2F)cn1 [I-T3-68] | 100 | 80 | 100 | 4.8 | 100 | –
O=C(NC1CC1)c1c(Cl)ccc(-c2cnn(-c3c(Cl)cc(C(F)(C(F)(F)F)C(F)(F)F)cc3Cl)c2)c1F [I-T3-73] | 100 | 100 | 100 | 4.5 | 100 | –
CCc1cc(C(F)(C(F)(F)F)C(F)(F)F)cc(C)c1-n1cc(-c2cncc(C(=O)NC3(C#N)CC3)c2)cn1 [I-T3-76] | 100 | 90 | 90 | 3.4 | 100 | –
CCc1cc(C(F)(C(F)(F)F)C(F)(F)F)cc(C)c1-n1cc(-c2cncc(C(=O)NC3CC3)c2)cn1 [I-T3-77] | 100 | 100 | 100 | 3.4 | 100 | –
CCc1cc(C(F)(C(F)(F)F)C(F)(F)F)ccc1-n1cc(-c2cncc(C(=O)NC3CC3)c2)cn1 [I-T3-79] | 95 | 80 | 80 | 3.3 | 100 | –
